Test results as given in US20050164951A1, “Inhibitors for the soluble epoxide hydrolase” (The Regents of the University of California, priority 2003, published 2005).
Entries after “also recorded” stand apart in the source; their conditions may differ. Values belong to the molecule of their own block, whether it stands above or below them.

Legend:
[1] = Metabolic stability in rat hepatic microsomes with NADPH generating system; assay type: in vitro ADME; settings: 1 μM, NADPH generating system, FIGS. 6 and 7
Description: FIG. 6 is a graph illustrating the metabolic stabilities of 1-adamantyl-3-dodecyl urea (686) and 1-cyclohexyl-3-dodecyl urea (297) in rat hepatic microsomes. Microsomes were incubated with 1 μM 686 or 297 in the presence of an NADPH generating system. Data are expressed as mean ±SD of triplicate experiments.
To evaluate the metabolic stability of these inhibitors, the microsomal and NADPH dependent metabolism of a number of potent sEH inhibitors was evaluated. […] The first step in the metabolic transformation of the n-alkyl to n-alkanoic acid derivatives is an NAPDH dependent process carried out by cytochrome P450 dependent omega hydroxylation in rodent and human hepatic tissue preparations (see FIG. 8). When in vivo metabolism was evaluated, evidence for the beta-oxidation of the alkanoic acid derivatives was also found (see FIG. 9).

[2] = Pharmacokinetics after oral gavage in mice; assay type: in vivo, mouse; settings: 5 mg/kg orally
Description: Animals. Male Swiss Webster mice, 6 weeks-old, were obtained from Charles River (Calif., USA). […] The body weight of animals used in all the experiments ranged from 28 g to 38 g. […] Administration and measurement. […] Then the samples were centrifuged at 6000 rpm for 5 min, and the ethyl acetate layer was dried under nitrogen. The residue was reconstituted in 25 μL of methanol, and aliquots (5 μL) were injected onto the LC-MS/MS system. Analysis. Pharmacokinetics analysis was performed using SigmaPlot software system (SPSS science, Chicago, Ill.). […] AUC=a/b Where: • C=the total blood concentration at time t • a=the extrapolated zero intercept b=the apparent first-order elimination rate constant

[3] = Pharmacokinetics of 687 and 800 in a human subject; assay type: in vivo; settings: FIG. 11; single oral administration of either 687 or 800 to a human subject
Description: (§1) Serial bled blood samples (3-50 μL) were collected from finger tips into 50 μL heparinized capillary tube at various time points (0.5, 1, 2, 4, 6, 12 and 24 hr) after administration. These samples were used to measure parent compounds and their metabolites using LC-MS/MS as described above for experiments with mice. Blood samples were added 400 μL of distilled water and 25 μL of internal standard (500 ng/mL CTU), and vortexed. The blood samples were then extracted with 500 μL of ethyl acetate twice and the ethyl acetate layer was dried under nitrogen. The residue was reconstituted in 25 μL of methanol, and aliquots (10 μL) were injected onto the LC-MS/MS system as described above. Biological end points came from clinical chemistry samples run at The University of California Davis Clinical Laboratory and a series of 6 inflammatory markers including C reactive protein were run blind at the University of California Davis Department of Nephrology.

[4] = system: linoleate and arachidonate derived epoxides and diols; test: Urinary oxylipins in angiotensin II infused rats; assay type: in vivo, rat; settings: ANGII infused Sprague-Dawley rats, subcutaneous injection, urine 24 hr post exposure, LC/MS/MS
From the text: In this example, hypertension was induced in one group of Sprague-Dawley rats by the infusion of angiotensin II (ANGII).

[5] = Blood concentration after oral administration of 950 and AUDA-nBE, human pharmacokinetic profile; assay type: in vivo
Description: FIG. 16 provides a sample preparation procedure for a pharmacokinetic study. A 5 μl whole blood sample was drawn into a capillary at a specific time point, each sample was extracted and anaylzed by LC/MS-MS. […] AUDA is the active metabolite of AUDA-nBE. […] 0.05 mg/kg. (B). 0.1 mg/kg. […] The compounds were administered at the same time in the same formulation. […] 21 mg (0.3 mg/kg) 950 and AUDA-nBE were orally administrated with starch. (B). 7 mg (0.1 mg/kg) formulated 950 and AUDA-NBE were taken with (HPMC, starch and lactose). (C). […] 950 with HPMC and Starch. (B). 950 in lactose and HPMC. […] HPMC forms a gel which slowly erodes; lactose enhances erosion at it moves through the gut and starch retards it. These formulations are combined, ball milled, and then placed in ‘0’ capsule and not compressed.

[6] = assay type: in vitro ADME, rat and human
From the text: Both rat and human microsomes were used for the 950 metabolism study.

human sEH = molecular target: T1, human sEH (Homo sapiens, UniProt P34913); test: Inhibition of recombinant human sEH, IC50 assay with 4-nitrophenyl-trans-2,3-epoxy-3-phenylpropyl carbonate as substrate; assay type: biochemical; settings: Table 2; […] enzyme, 5 min preincubation, pH 7.4, 30° C.; means ± SD; read-out: IC50 (μM) Human sEH
T1 construct: made in house; host or cells: baculovirus expression system
T1 sequence (P34913 1-555): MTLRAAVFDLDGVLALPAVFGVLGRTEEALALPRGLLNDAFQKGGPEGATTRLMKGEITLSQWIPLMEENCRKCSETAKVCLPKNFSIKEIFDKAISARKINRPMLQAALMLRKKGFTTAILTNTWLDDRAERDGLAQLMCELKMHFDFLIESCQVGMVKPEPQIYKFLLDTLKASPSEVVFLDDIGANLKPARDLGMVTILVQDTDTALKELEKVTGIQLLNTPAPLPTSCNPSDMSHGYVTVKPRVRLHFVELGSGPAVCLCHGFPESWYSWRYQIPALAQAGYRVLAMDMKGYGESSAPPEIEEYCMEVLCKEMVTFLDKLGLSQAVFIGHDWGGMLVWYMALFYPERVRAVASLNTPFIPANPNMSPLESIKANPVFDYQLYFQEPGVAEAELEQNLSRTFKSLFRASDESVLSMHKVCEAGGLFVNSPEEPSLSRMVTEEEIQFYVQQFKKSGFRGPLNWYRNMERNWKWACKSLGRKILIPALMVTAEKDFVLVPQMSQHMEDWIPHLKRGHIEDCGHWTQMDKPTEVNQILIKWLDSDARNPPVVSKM
Description: Assays were performed in triplicate. […] The curve was generated from at least three separate runs, each in triplicate, to obtain the standard deviation (SD) given in Table 1 thru Table 4.

[7] = Cream on index finger of a patient with Raynaud syndrome before cold exposure; assay type: in vivo, human; settings: cream applied to a finger before cold exposure
Description: The experimental design involved preparing the Vanicream solutions with ethanol with or without active compound, then covering the syringe barrels with aluminum foil. The compounds were applied in a bind fashion approximately 20 minutes before exposure and then the hands were exposed to cold for approximately 30 minutes and the results recorded. The following day the results were decoded. Treatments (left or right index finger) were random. […] The test compounds were dissolved in ethanol at a concentration of 10 mg/mL and this in turn mixed with commercial Vanicream at a 10:1 concentration to give 1 mg/mL final concentration of active ingredient in the Vanicream/ethanol mixture. Approximately 100 μL of cream (±sEH inhibitor) were applied to a single finger. The first two columns indicate that over a range of exposure conditions the results from the left and right […] were similar. […] Since the experiment was run blind, the left and right index fingers were treated in a random fashion. For convenience the treatments are shown on the right in each case. […]

[8] = Oral AUDA butyl ester (800) in a patient with end stage renal disease: clinical chemistry, C reactive protein, blood pressure; assay type: in vivo, human
Description: as §1, with “These” for “Serial bled blood samples (3-50 μL) were collected from finger tips into 50 μL heparinized capillary tube at various time points (0.5, 1, 2, 4, 6, 12 and 24 hr) after administration. These”

metabolic stability in microsomal preparations [1]: stable
time to reach the maximum concentration [2]: 30 min
maximum circulating concentration of 687, humans compared with mice [3]: much higher in humans
SMILES: O=C(O)CCCCCCCCCCCNC(=O)NC12CC3CC(CC(C3)C1)C2 [Compound 687, 1-(1-adamantyl)-3-(12-dodecanoic acid)urea]
urinary diol concentrations (DHOMEs, DHETs) [4]: decrease in diol concentrations
urinary epoxides (EpOMEs, EETs) [4]: increase in urinary epoxides

T1/2 compared with AUDA-BE ([5]; human, in vivo, po, 0.1 mg/kg): longer T1/2
pharmacokinetics ([5]; in vivo): improved pharmacokinetics
SMILES: CCOCCOCCOCCCCCNC(=O)NC12CC3CC(CC(C3)C1)C2 [Compound 950]
major metabolite in vitro [6]: hydroxy metabolite was the major metabolite

SMILES: CCCCCCCCCCCCNC(=O)NC1CCCCC1 [Compound 297, 1-cyclohexyl-3-dodecyl urea, reference compound]
IC50 (human sEH): 0.14 ± 0.01 µM
effect on Raynaud's symptoms [7]: reduces severity of Raynaud's symptoms

SMILES: CCCCOC(=O)CCCCCCCCCCCNC(=O)NC12CC3CC(CC(C3)C1)C2 [Compound 800, 1-(1-Adamantyl)-3-(11-butoxycarbonylundecyl)urea]
serum profile of regulatory lipids ([8]; patient approaching ESRD, brief oral treatment with low doses): altered the serum profile of regulatory lipids in a positive manner
Creatinine ([8]; same trial, ESRD without drug 5.0, normal 0.5-1.3): 4.9 mg/dL
Cmax ([5]; FIG. 23, 7mg each in tristerate (0.1 mg/kg) orally, human): rather high Cmax
performance of simple dry formulations ([5]; FIG. 26, starch, HPMC/starch/lactose or lactose, 0.1-0.3 mg/kg orally): very poorly
absorption depending on formulation ([5]; FIGS. 23 and 26, oral, human, listed as AUDA-BE): only absorbed efficiently in a lipid formulation; also recorded: bioavailable in lipid formulations
